Results published in the NIST ThermoML archive (doi:10.1021/je400783h).
Numbers after ± are expanded uncertainties.

Conditions: for surface tension liquid-gas: Drop volume; for viscosity / speed of sound / mass density / vapor or sublimation pressure: Liquid; for viscosity: Capillary tube (Ostwald / Ubbelohde) method; for speed of sound: Pulse-echo method; for vapor or sublimation pressure: Ebulliometric method (Recirculating still)

Cc1ccc(C=O)o1 [5-methylfurfural]
Conditions	surface tension liquid-gas [mN/m]	vapor or sublimation pressure [kPa]
278.15 K	43.02 ± 0.3	–
280.65 K	42.75 ± 0.29	–
283.15 K	42.37 ± 0.29	–
285.65 K	42.13 ± 0.29	–
288.15 K	41.8 ± 0.29	–
290.65 K	41.46 ± 0.29	–
293.15 K	41.2 ± 0.29	–
295.65 K	40.9 ± 0.29	–
298.15 K	40.61 ± 0.28	–
300.65 K	40.22 ± 0.28	–
303.15 K	39.95 ± 0.28	0.1 ± 0.1
305.65 K	39.66 ± 0.28	–
308.15 K	39.32 ± 0.28	0.15 ± 0.1
310.65 K	39.04 ± 0.28	–
313.15 K	38.75 ± 0.27	–

Conditions	mass density [kg/m3]	speed of sound [m/s]	viscosity [mPa·s]
278.15 K, 101.33 kPa	–	1521 ± 1.2	3.164 ± 0.067
280.65 K, 101.33 kPa	–	1511.8 ± 1.2	2.974 ± 0.063
283.15 K, 100 kPa	1118.02 ± 0.56	–	–
283.15 K, 101.33 kPa	–	1502.5 ± 1.2	2.764 ± 0.059
283.15 K, 2500 kPa	1119.83 ± 0.61	–	–
283.15 K, 5000 kPa	1121.37 ± 0.66	–	–
283.15 K, 7500 kPa	1122.65 ± 0.71	–	–
283.15 K, 10000 kPa	1124.02 ± 0.76	–	–
283.15 K, 20000 kPa	1129.41 ± 0.98	–	–
283.15 K, 30000 kPa	1134.53 ± 1.2	–	–
283.15 K, 40000 kPa	1139.44 ± 1.5	–	–
283.15 K, 50000 kPa	1144.14 ± 1.7	–	–
283.15 K, 60000 kPa	1148.58 ± 2	–	–
285.65 K, 101.33 kPa	–	1493.2 ± 1.2	2.628 ± 0.056
288.15 K, 100 kPa	1113.09 ± 0.55	–	–
288.15 K, 101.33 kPa	–	1484 ± 1.2	2.443 ± 0.052
288.15 K, 2500 kPa	1114.82 ± 0.6	–	–
288.15 K, 5000 kPa	1116.39 ± 0.64	–	–
288.15 K, 7500 kPa	1117.87 ± 0.69	–	–
288.15 K, 10000 kPa	1119.23 ± 0.74	–	–
288.15 K, 20000 kPa	1124.75 ± 0.96	–	–
288.15 K, 30000 kPa	1129.99 ± 1.2	–	–
288.15 K, 40000 kPa	1134.99 ± 1.4	–	–
288.15 K, 50000 kPa	1139.79 ± 1.7	–	–
288.15 K, 60000 kPa	1144.31 ± 1.9	–	–
290.65 K, 101.33 kPa	–	1474.7 ± 1.2	2.297 ± 0.049
293.15 K, 100 kPa	1108.15 ± 0.54	–	–
293.15 K, 101.33 kPa	–	1465.5 ± 1.2	2.175 ± 0.046
293.15 K, 2500 kPa	1110.03 ± 0.58	–	–
293.15 K, 5000 kPa	1111.5 ± 0.63	–	–
293.15 K, 7500 kPa	1112.96 ± 0.68	–	–
293.15 K, 10000 kPa	1114.4 ± 0.73	–	–
293.15 K, 20000 kPa	1120.15 ± 0.93	–	–
293.15 K, 30000 kPa	1125.46 ± 1.1	–	–
293.15 K, 40000 kPa	1130.57 ± 1.4	–	–
293.15 K, 50000 kPa	1135.4 ± 1.6	–	–
293.15 K, 60000 kPa	1140.08 ± 1.9	–	–
295.65 K, 101.33 kPa	–	1456.3 ± 1.2	2.056 ± 0.044
298.15 K, 100 kPa	1103.2 ± 0.53	–	–
298.15 K, 101.33 kPa	–	1447 ± 1.2	1.948 ± 0.041
298.15 K, 2500 kPa	1104.82 ± 0.57	–	–
298.15 K, 5000 kPa	1106.62 ± 0.62	–	–
298.15 K, 7500 kPa	1108.34 ± 0.66	–	–
298.15 K, 10000 kPa	1109.63 ± 0.71	–	–
298.15 K, 20000 kPa	1115.43 ± 0.91	–	–
298.15 K, 30000 kPa	1120.97 ± 1.1	–	–
298.15 K, 40000 kPa	1126.15 ± 1.4	–	–
298.15 K, 50000 kPa	1131.12 ± 1.6	–	–
298.15 K, 60000 kPa	1135.84 ± 1.9	–	–
300.65 K, 101.33 kPa	–	1437.8 ± 1.2	1.853 ± 0.039
303.15 K, 100 kPa	1098.25 ± 0.53	–	–
303.15 K, 101.33 kPa	–	1428.7 ± 1.2	1.757 ± 0.037
303.15 K, 2500 kPa	1100.71 ± 1	–	–
303.15 K, 5000 kPa	1101.81 ± 0.6	–	–
303.15 K, 7500 kPa	1103.11 ± 0.65	–	–
303.15 K, 10000 kPa	1104.89 ± 0.69	–	–
303.15 K, 20000 kPa	1110.81 ± 0.88	–	–
303.15 K, 30000 kPa	1116.44 ± 1.1	–	–
303.15 K, 40000 kPa	1121.72 ± 1.3	–	–
303.15 K, 50000 kPa	1126.87 ± 1.6	–	–
303.15 K, 60000 kPa	1131.66 ± 1.8	–	–
305.65 K, 101.33 kPa	–	1419.6 ± 1.2	1.674 ± 0.036
308.15 K, 100 kPa	1093.29 ± 0.51	–	–
308.15 K, 101.33 kPa	–	1410.5 ± 1.2	1.598 ± 0.034
308.15 K, 2500 kPa	1095.01 ± 0.55	–	–
308.15 K, 5000 kPa	1096.9 ± 0.59	–	–
308.15 K, 7500 kPa	1098.15 ± 0.63	–	–
308.15 K, 10000 kPa	1100.06 ± 0.68	–	–
308.15 K, 20000 kPa	1106.17 ± 0.86	–	–
308.15 K, 30000 kPa	1111.86 ± 1.1	–	–
308.15 K, 40000 kPa	1117.24 ± 1.3	–	–
308.15 K, 50000 kPa	1122.38 ± 1.5	–	–
308.15 K, 60000 kPa	1127.34 ± 1.8	–	–
310.65 K, 101.33 kPa	–	1401.4 ± 1.2	1.527 ± 0.033
313.15 K, 100 kPa	1088.32 ± 0.5	–	–
313.15 K, 101.33 kPa	–	1392.3 ± 1.2	1.461 ± 0.031
313.15 K, 2500 kPa	1090.31 ± 0.54	–	–
313.15 K, 5000 kPa	1092.06 ± 0.58	–	–

101.33 kPa, Vibrating tube method
Conditions	mass density [kg/m3]
278.15 K	1122.94 ± 0.34
280.65 K	1120.49 ± 0.34
283.15 K	1118.02 ± 0.34
285.65 K	1115.56 ± 0.34
288.15 K	1113.09 ± 0.34
290.65 K	1110.62 ± 0.33
293.15 K	1108.15 ± 0.33
295.65 K	1105.68 ± 0.33
298.15 K	1103.2 ± 0.33
300.65 K	1100.73 ± 0.33
303.15 K	1098.25 ± 0.32
305.65 K	1095.77 ± 0.32
308.15 K	1093.29 ± 0.32
310.65 K	1090.8 ± 0.32
313.15 K	1088.32 ± 0.32
